Data as given in patent publication US10851096B2, “Aryl and heteroaryl amides for use as anti-proliferative, anti-thrombotic, and anti-viral agents” (Rutgers, The State University of New Jersey, priority 2016, dated 2020).

Tests used:
native Axl = target: T1, native Axl (Homo sapiens, UniProt P30530); assay: Gas6-inducible phosphorylation of native Axl in H1299 cells (immunoblot); type: cell-based; conditions: H1299 lung cancer cell line, FIG. 5B
T1 construct: Gas6-inducible phosphorylation of native Axl (pAxl); endogenous in cells; host or cells: MDA-MB-231
T1 sequence (P30530 26-894): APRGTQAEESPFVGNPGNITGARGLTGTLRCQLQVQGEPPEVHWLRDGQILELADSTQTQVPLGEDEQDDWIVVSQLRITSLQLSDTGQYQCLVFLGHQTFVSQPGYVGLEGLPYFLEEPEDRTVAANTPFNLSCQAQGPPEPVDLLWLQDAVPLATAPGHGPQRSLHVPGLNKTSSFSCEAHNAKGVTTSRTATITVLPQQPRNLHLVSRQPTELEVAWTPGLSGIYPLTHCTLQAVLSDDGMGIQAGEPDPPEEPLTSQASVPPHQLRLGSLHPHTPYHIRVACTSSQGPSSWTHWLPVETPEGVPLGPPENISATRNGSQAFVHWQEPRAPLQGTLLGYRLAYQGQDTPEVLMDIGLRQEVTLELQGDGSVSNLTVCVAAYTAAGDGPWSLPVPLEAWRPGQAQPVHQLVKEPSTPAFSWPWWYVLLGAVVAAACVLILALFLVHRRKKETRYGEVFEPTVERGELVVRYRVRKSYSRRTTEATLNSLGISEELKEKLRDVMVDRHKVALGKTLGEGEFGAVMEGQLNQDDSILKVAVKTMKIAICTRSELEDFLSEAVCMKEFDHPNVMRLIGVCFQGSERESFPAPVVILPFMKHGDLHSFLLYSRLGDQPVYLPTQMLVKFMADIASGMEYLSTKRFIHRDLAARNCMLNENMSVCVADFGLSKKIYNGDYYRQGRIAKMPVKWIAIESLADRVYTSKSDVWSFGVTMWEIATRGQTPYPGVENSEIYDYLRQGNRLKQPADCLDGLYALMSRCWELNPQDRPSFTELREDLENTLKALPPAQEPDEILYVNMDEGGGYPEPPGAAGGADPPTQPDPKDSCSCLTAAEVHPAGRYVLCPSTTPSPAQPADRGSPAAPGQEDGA
Description: (§1) Stable hAxl/IFN-γR1 CHO reporter cell lines (containing human Axl extracellular domains and transmembrane and intracellular domains of human IFN-γR1) were serum starved for 5 hrs±small molecule inhibitors and then stimulated with human Gas6 conditioned media±small molecule inhibitors for 30 minutes. For H1299 human non-small cell lung carcinoma and MDA-MB-231 human breast adenocarcinoma cell lines, the cells were serum starved overnight±small molecule inhibitors and stimulated with human Gas6 conditioned media±small molecule inhibitors for 30 minutes. Whole cell lysates of hAxl/IFN-γR1, H1299 and MDA-MB-231 cells were prepared using HNTG buffer (20 mM HEPES, pH 7.5, 150 mM NaCl, 10% glycerol, 1% Triton X-100, 1 mM PMSF, 1 mM Na3VO4, 10 mM Na2MoO4, 1 mM EDTA, 10 mM NaF and 20 μg/mL aprotinin). The resulting lysates were resolved on SDS-PAGE gel and immunoblotted with respective antibodies.
Immunoblot data were obtained within a linear range of exposure, and intensities were quantified by ImageJ. The levels of hAxl/IFN-γR1 cells lines activation were measured by pSTAT1 whereas the levels of H1299 and MDA-MB-231 cell lines activation were measured by pAxl signal intensities. Blots were normalized to intensities of respective β-actin or GAPDH protein loading controls. […]

hAxl/IFN-γR1 = target: T2, hAxl/IFN-γR1 (Homo sapiens, UniProt P30530); assay: hAxl/IFN-γR1 CHO reporter cell line assay, Gas6-induced activation (pSTAT1 immunoblot); type: cell-based; conditions: for apparent EC50, anti-Axl activity: Axl reporter system; for IC50: dose-response, FIG. 2A/2B, read-out: IC50, Axl-inhibitory activity on hAxl/IFN-γR1 reporter cell lines
T2 construct: containing human Axl extracellular domains and transmembrane and intracellular domains of human IFN-γR1; human IFN-γR1 transmembrane and intracellular domains (fusion partner); expressed in transfected cells
T2 sequence (P30530 26-451 limits assumed): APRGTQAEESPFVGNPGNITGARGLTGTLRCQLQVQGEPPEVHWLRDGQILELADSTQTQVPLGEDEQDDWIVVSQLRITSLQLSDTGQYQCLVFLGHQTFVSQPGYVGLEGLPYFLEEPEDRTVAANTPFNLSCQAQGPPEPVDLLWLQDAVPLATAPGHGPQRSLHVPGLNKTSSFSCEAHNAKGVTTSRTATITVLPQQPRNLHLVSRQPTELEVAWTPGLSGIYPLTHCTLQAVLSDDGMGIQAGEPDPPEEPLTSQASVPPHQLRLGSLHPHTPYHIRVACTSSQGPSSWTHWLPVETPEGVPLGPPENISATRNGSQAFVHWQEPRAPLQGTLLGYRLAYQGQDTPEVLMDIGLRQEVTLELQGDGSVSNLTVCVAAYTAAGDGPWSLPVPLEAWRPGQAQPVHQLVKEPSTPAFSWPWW
Description: Stable HEK 293 cells secreting human Gas6 (clone 7.4.1) were allowed to achieve 70% confluence in a 10-cm plate. The complete medium with 10% FBS was then changed into serum free media in the presence of 10 µg/mL vitamin K1 (Phytonadione injectable emulsion from Hospira). After 72 hours, the Gas6 conditioned medium was collected, and validated for the presence of Gas6 and γ-carboxylation (by immunoblot) and activity of Gas6 (via activation of pSTAT1 in hAxl/γR1 cells).
as §1
Immunoblot data were obtained within a linear range of exposure, and intensities were quantified by ImageJ. The levels of hAxl/IFN-γR1 cells lines activation were measured by pSTAT1 whereas the levels of H1299 and MDA-MB-231 cell lines activation were measured by pAxl signal intensities. Blots were normalized to intensities of respective β-actin or GAPDH protein loading controls. The levels of pSTAT1 or pAxl activation induced by Gas6±small molecule inhibitors were plotted as a fold of enhancement or reduction over intensities induced by Gas6 alone.

[1] = Toxicity and body weight in xenograft mice; type: in vivo; conditions: for body weights: 100 mg/kg, versus vehicle; for toxicity in cell culture or in vivo: up to highest dose tested 300 mg/kg IP
Description: 500,000 H1299 cells in 100 μl of PBS were injected subcutaneously into the right flank of 4-6 week NOD/SCIDg mice. Once tumors were palpable, the mice were randomized into 3 groups, each group had 6 mice: control mice were treated with vehicle (DMSO) intraperitoneally (IP) and the treatment groups with compound 1I (day 1, day 2, day 3 and day 4) or with compound 1Q (day 1, day 2, day 3, day 4, day 7 and day 8) at a dose of 100 mg/kg IP. Similar studies were conducted on compound 1Q dosed at 300 mg/kg in mice. Tumor size and body weights were measured three times a week and the tumor volume calculated.

H1299 cells = assay: Real-time migration assay (RTCA DP Xcelligence), H1299; type: cell-based, human; conditions: Gas6-inducible H1299 cells
Description: H1299 and MDA-MB-231 cells lines were seeded in complete medium and allowed to attain ˜80% confluence and then serum starved overnight in medium containing 0.5% FBS. The cells were then detached by Accutase (Sigma), counted and resuspended in serum-free RPMI-1640 medium. In the lower chamber of the CIM plate, 1×RPMI-1640 containing 10% FBS was added as a chemoattractant. In the top chamber, 50 μl of 1×RPMI-1640 was added to all wells. Both chambers were assembled, loaded in the Xcelligence system, and run for 30 min for equilibration or background readings. One hundred microliters of each cell line suspended in 1×RPMI-1640 (40,000 cells/100 μl)±Gas6±small molecule inhibitors then were added in triplicates in upper chamber wells. Readings for changes in the cell index (CI) were taken every 10 min for 24 h and migration was shown as a change in cell index versus time.

| Compound | inhibition of activation (phosphorylation) of Axl (native Axl) | remaining activity at 10 µM (hAxl/IFN-γR1) [%] | apparent EC50, anti-Axl activity (hAxl/IFN-γR1) | IC50 (hAxl/IFN-γR1) [nM] | body weights [1] | toxicity in cell culture or in vivo [1] | motility (real-time, cell index) (H1299 cells) |
| --- | --- | --- | --- | --- | --- | --- | --- |
| Cc1noc(C)c1CSc1ccccc1C(=O)N1CCN(c2cccc(C(F)(F)F)c2)CC1 [1I] | potent inhibition | 20 | low micro-molar range | 1150 | not significantly different | Neither compound 1I nor compound 1Q showed notable toxicity | suppressed motility |
| Cc1cc(CSc2ccccc2C(=O)NCCNc2ccc(C(F)(F)F)cc2[N+](=O)[O-])on1 [1Q] | potent inhibition | 10 | low micro-molar range | 1250 | not significantly different | Neither compound 1I nor compound 1Q showed notable toxicity | suppressed motility |
